Test results: patent US7713972B2, “Imidazotriazinone derivatives as PDE 7 (phosphodiesterase 7) inhibitors” (Asubio Pharma Co., Ltd., priority 2003, dated 2010)

molecular target: T1, PDE 7 (phosphodiesterase VII) (Homo sapiens, UniProt Q13946); experiment: PDE 7 inhibiting effect (Biological Test 1; 3H-cAMP hydrolysis by PDE 7 active fraction from MOLT-4 cells); format: biochemical; conditions: PDE 7 fraction from MOLT-4 cells; 0.064 μM cAMP, 10 μM rolipram present, 2 hours at 25° C.; read-out: PDE 7 inhibiting activities, IC50
T1 construct: endogenous in cells; host or cells: MOLT-4 (ATCC CRL-1582), soluble fraction, HiTrap Q column, fraction eluting at about 350 mM NaCl
Protocol: The PDE 7 (phosphodiesterase VII) inhibiting effect of the compounds of the present invention was performed by the following method, which was modified assay method described in Biochemical. Pharmacol. 48(6), 1219-1223 (1994).
(1) The active fraction of PDE 7 (phosphodiesterase VII) was obtained. That is, MOLT-4 (obtainable from ATCC as ATCC No. CRL-1582), which was cell line of human acute lymphoblastic lymphoma T cells, was incubated in RPMI1640 culture medium containing 10% fetal bovine serum to obtain 5×10^8 MOLT-4 cells. The cells were collected by centrifugation and suspended with 10 mL of buffer solution A [25 mM of tris-HCl, 5 mM of 2-mercaptoethnol, 2 mM of benzamidine, 2 mM of EDTA, 0.1 mM of 4-(2-aminoethyl) benzensulfonyl hydrochloride; pH 7.5], then homogenized by Polytron® homogenizer. The homogenate were centrifuged under 25,000×G for 10 minutes at 4° C. The supernatant was separated and thus obtained supernatant was further centrifuged under 100,000×G for 60 minutes at 4° C., and then filtrated with 0.2 μm filter to obtain the soluble fraction. (2) The obtained soluble fraction was filled in equilibrium HiTrap Q column (5 mL×2) with buffer solution A, and phosphodiesterase fractions were eluted by 300 mL of buffer solution A with linear gradient from 0 to 0.8 M NaCl concentration. 5 ml each of 60 eluents were collected, and each eluents were examined for cyclic AMP metabolic activities of phosphodiesterase. The fraction eluting with about 350 mM NaCl concentration parts, where metabolic activities were not inactivated by 10 μM of rolipram (selective inhibitor for phosphodiesterase IV) and 10 μM of milrinone (selective inhibitor for phosphodiesterase III), were collected as storage solution for using to test PDE 7 inhibiting effect. […] Further, SEPHADEX®-QAE (cross-linked dextran gel) was added to the obtained supernatant and the mixture was leaved at rest for 5 minutes, then, the radioactivity of the solution was measured. […]

T1 sequence (Q13946 whole entry): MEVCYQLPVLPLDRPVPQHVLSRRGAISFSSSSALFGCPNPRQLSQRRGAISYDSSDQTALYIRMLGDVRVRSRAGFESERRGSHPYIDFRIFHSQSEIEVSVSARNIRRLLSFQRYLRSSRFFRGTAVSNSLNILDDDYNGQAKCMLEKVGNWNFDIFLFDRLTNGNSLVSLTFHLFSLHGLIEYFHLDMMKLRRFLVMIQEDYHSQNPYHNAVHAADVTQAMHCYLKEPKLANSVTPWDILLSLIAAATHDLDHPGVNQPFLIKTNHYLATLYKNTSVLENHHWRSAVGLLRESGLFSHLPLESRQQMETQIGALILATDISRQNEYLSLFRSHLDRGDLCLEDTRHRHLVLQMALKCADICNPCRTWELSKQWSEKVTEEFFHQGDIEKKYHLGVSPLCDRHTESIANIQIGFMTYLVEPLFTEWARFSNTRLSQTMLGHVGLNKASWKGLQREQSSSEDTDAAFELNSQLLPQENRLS

| IC50 | SMILES |
| --- | --- |
| 490 nM | COc1ccccc1-c1nn2c(C)nc(C3CCCCC3)c2c(=O)[nH]1 [Compound 12, 5-Cyclohexyl-2-(2-methoxyphenyl)-7-methylimidazo-[5,1-f][1,2,4]triazin-4(3H)-one] |
| 340 nM | COc1ccccc1-c1nc2c(C)nc(C3CCCCC3)n2c(=O)[nH]1 [Compound 8, 6-Cyclohexyl-2-(2-methoxyphenyl)-8-methylimidazo[1,5-a][1,3,5]-triazin-4(3H)-one] |
| 55 nM | COc1cc(N2CCN(C)CC2)ccc1-c1nc2c(C)nc(C3CCCCC3)n2c(=O)[nH]1 [Compound 11, 6-Cyclohexyl-2-[2-methoxy-4-(4-methyl-1-piperadinyl)phenyl]-8-methylimidazo[1,5-a][1,3,5]triazin-4(3H)-one] |
